# Laboratory results published in patent publication US20200085776A1, “Methods of Reducing C-Reactive Protein and/or Treating Cardiovascular Disease” (CARDAX, INC., priority 2018, published 2020).
# How the values were obtained:
# Oxidized LDL = assay: Oxidized LDL, CHASE clinical study; assay type: in vivo, human; set-up: Oxidized LDL Mean (SD) / Oxidized LDL Median / Oxidized LDL Min / Oxidized LDL Max / Oxidized LDL V2 to V6 Change Median / Oxidized LDL V2 to V6 Change Max: unit not given here; conditions: all subjects; for Oxidized LDL V2 to V6 % Change Max / Oxidized LDL V2 to V6 % Change Mean (SD) / Oxidized LDL V2 to V6 % Change Median / Oxidized LDL V2 to V6 % Change Min / Oxidized LDL V2 to V6 Change Max / Oxidized LDL V2 to V6 Change Mean (SD) / Oxidized LDL V2 to V6 Change Median / Oxidized LDL V2 to V6 Change Min: baseline to Week 12
# Text: Samples shall be obtained for TNF-α, IL-1β, IL-6, IFN-γ, and oxLDL at V2, V4, V6, and V8 I.
# (§1) Table 7M provides the changes in lipid levels (mg/dL) (V2 to V6) for subjects.
# HDL = assay: Fasting lipid panel: HDL, CHASE clinical study; assay type: in vivo, human; conditions: for HDL V2 to V6 % Change Max / HDL V2 to V6 % Change Mean (SD) / HDL V2 to V6 % Change Median / HDL V2 to V6 % Change Min / HDL V2 to V6 Change Max / HDL V2 to V6 Change Mean (SD) / HDL V2 to V6 Change Median / HDL V2 to V6 Change Min: baseline to Week 12
# Text: Blood samples shall be obtained under fasted conditions for a lipid panel at V2, V4, V6, V7, and V8. This panel shall include total cholesterol, LDL-C, VLDL-C, HDL-C, and triglycerides. A minimum eight-hour fast (water allowed) is required for the lipid panel.
# Fasting lipid profiles and fasting chemistry panels may be obtained within the visit time window on a day separate from the scheduled office visit, within two days before or after the other study procedures. A minimum of eight hours fasted (water allowed ad lib) is required.
# as §1
# [1] = Group X 12 mg BID, V2 baseline pre-dose
# [2] = Group Z 48 mg BID, V2 baseline pre-dose
# [3] = Group X 12 mg BID, V2 baseline pre-dose, all subjects
# [4] = Group X 12 mg BID, V2 baseline pre-dose, subjects with hyperlipidemia
# [5] = Group X 12 mg BID, V6 Week 12, all subjects
# [6] = Group X 12 mg BID, V6 Week 12, subjects with hyperlipidemia
# [7] = Group X 12 mg BID, all subjects
# [8] = Group X 12 mg BID, subjects with hyperlipidemia
# [9] = Group Z 48 mg BID, V2 baseline pre-dose, all subjects
# [10] = Group Z 48 mg BID, V2 baseline pre-dose, subjects with hyperlipidemia
# [11] = Group Z 48 mg BID, V6 Week 12, all subjects
# [12] = Group Z 48 mg BID, V6 Week 12, subjects with hyperlipidemia
# [13] = Group Z 48 mg BID, all subjects
# [14] = Group Z 48 mg BID, subjects with hyperlipidemia
compound,measurement,setting,value
"CC1=C(/C=C/C(C)=C/C=C/C(C)=C/C=C/C=C(C)/C=C/C=C(C)/C=C/C2=C(C)C(=O)C(O)CC2(C)C)C(C)(C)CC(O)C1=O (stereo not drawn) [Astaxanthin, astaxanthin]",Oxidized LDL Max,Oxidized LDL; [1],87.00
same,Oxidized LDL Mean (SD),Oxidized LDL; [1],51.64 (18.34)
same,Oxidized LDL Median,Oxidized LDL; [1],49.00
same,Oxidized LDL Min,Oxidized LDL; [1],29.00
same,Oxidized LDL Max,"Oxidized LDL; Group X 12 mg BID, V6 Week 12",85.00
same,Oxidized LDL Mean (SD),"Oxidized LDL; Group X 12 mg BID, V6 Week 12",51.18 (17.62)
same,Oxidized LDL Median,"Oxidized LDL; Group X 12 mg BID, V6 Week 12",46.00
same,Oxidized LDL Min,"Oxidized LDL; Group X 12 mg BID, V6 Week 12",34.00
same,Oxidized LDL V2 to V6 % Change Max,Oxidized LDL; Group X 12 mg BID,17.24%
same,Oxidized LDL V2 to V6 % Change Mean (SD),Oxidized LDL; Group X 12 mg BID,0.41 (12.46) %
same,Oxidized LDL V2 to V6 % Change Median,Oxidized LDL; Group X 12 mg BID,2.86%
same,Oxidized LDL V2 to V6 % Change Min,Oxidized LDL; Group X 12 mg BID,−26.0%
same,Oxidized LDL V2 to V6 Change Max,Oxidized LDL; Group X 12 mg BID,6.00
same,Oxidized LDL V2 to V6 Change Mean (SD),Oxidized LDL; Group X 12 mg BID,−0.45 (5.65)
same,Oxidized LDL V2 to V6 Change Median,Oxidized LDL; Group X 12 mg BID,1.00
same,Oxidized LDL V2 to V6 Change Min,Oxidized LDL; Group X 12 mg BID,−13.0
same,Oxidized LDL Max,Oxidized LDL; [2],86.00
same,Oxidized LDL Mean (SD),Oxidized LDL; [2],55.00 (17.80)
same,Oxidized LDL Median,Oxidized LDL; [2],59.00
same,Oxidized LDL Min,Oxidized LDL; [2],24.00
same,Oxidized LDL Max,"Oxidized LDL; Group Z 48 mg BID, V6 Week 12",77.00
same,Oxidized LDL Mean (SD),"Oxidized LDL; Group Z 48 mg BID, V6 Week 12",46.22 (15.21)
same,Oxidized LDL Median,"Oxidized LDL; Group Z 48 mg BID, V6 Week 12",48.00
same,Oxidized LDL Min,"Oxidized LDL; Group Z 48 mg BID, V6 Week 12",25.00
same,Oxidized LDL V2 to V6 % Change Max,Oxidized LDL; Group Z 48 mg BID,24.39%
same,Oxidized LDL V2 to V6 % Change Mean (SD),Oxidized LDL; Group Z 48 mg BID,−12.7 (19.64) %
same,Oxidized LDL V2 to V6 % Change Median,Oxidized LDL; Group Z 48 mg BID,−10.1%
same,Oxidized LDL V2 to V6 % Change Min,Oxidized LDL; Group Z 48 mg BID,−43.8%
same,Oxidized LDL V2 to V6 Change Max,Oxidized LDL; Group Z 48 mg BID,10.00
same,Oxidized LDL V2 to V6 Change Mean (SD),Oxidized LDL; Group Z 48 mg BID,−8.22 (12.33)
same,Oxidized LDL V2 to V6 Change Median,Oxidized LDL; Group Z 48 mg BID,−4.00
same,Oxidized LDL V2 to V6 Change Min,Oxidized LDL; Group Z 48 mg BID,−36.0
same,HDL Max,HDL; [3],73.00 mg/dL
same,HDL Mean (SD),HDL; [3],46.00 (17.37) mg/dL
same,HDL Median,HDL; [3],42.00 mg/dL
same,HDL Min,HDL; [3],24.00 mg/dL
same,HDL Max,HDL; [4],67.00 mg/dL
same,HDL Mean (SD),HDL; [4],45.38 (17.08) mg/dL
same,HDL Median,HDL; [4],42.50 mg/dL
same,HDL Min,HDL; [4],24.00 mg/dL
same,HDL Max,HDL; [5],68.00 mg/dL
same,HDL Mean (SD),HDL; [5],45.27 (13.68) mg/dL
same,HDL Median,HDL; [5],42.00 mg/dL
same,HDL Min,HDL; [5],29.00 mg/dL
same,HDL Max,HDL; [6],65.00 mg/dL
same,HDL Mean (SD),HDL; [6],44.13 (13.24) mg/dL
same,HDL Median,HDL; [6],41.00 mg/dL
same,HDL Min,HDL; [6],29.00 mg/dL
same,HDL V2 to V6 % Change Max,HDL; [7],24.14%
same,HDL V2 to V6 % Change Mean (SD),HDL; [7],1.78 (14.18) %
same,HDL V2 to V6 % Change Median,HDL; [7],−2.99%
same,HDL V2 to V6 % Change Min,HDL; [7],−16.3%
same,HDL V2 to V6 Change Max,HDL; [7],7.00 mg/dL
same,HDL V2 to V6 Change Mean (SD),HDL; [7],−0.73 (5.75) mg/dL
same,HDL V2 to V6 Change Median,HDL; [7],-1.00 mg/dL
same,HDL V2 to V6 Change Min,HDL; [7],-9.00 mg/dL
same,HDL V2 to V6 % Change Max,HDL; [8],24.14%
same,HDL V2 to V6 % Change Mean (SD),HDL; [8],0.85 (15.61) %
same,HDL V2 to V6 % Change Median,HDL; [8],−3.06%
same,HDL V2 to V6 % Change Min,HDL; [8],−16.3%
same,HDL V2 to V6 Change Max,HDL; [8],7.00 mg/dL
same,HDL V2 to V6 Change Mean (SD),HDL; [8],−1.25 (6.11) mg/dL
same,HDL V2 to V6 Change Median,HDL; [8],-1.50 mg/dL
same,HDL V2 to V6 Change Min,HDL; [8],-9.00 mg/dL
same,HDL Max,HDL; [9],77.00 mg/dL
same,HDL Mean (SD),HDL; [9],47.79 (14.77) mg/dL
same,HDL Median,HDL; [9],40.00 mg/dL
same,HDL Min,HDL; [9],29.00 mg/dL
same,HDL Max,HDL; [10],77.00 mg/dL
same,HDL Mean (SD),HDL; [10],44.93 (13.59) mg/dL
same,HDL Median,HDL; [10],40.00 mg/dL
same,HDL Min,HDL; [10],29.00 mg/dL
same,HDL Max,HDL; [11],75.00 mg/dL
same,HDL Mean (SD),HDL; [11],47.11 (14.59) mg/dL
same,HDL Median,HDL; [11],41.00 mg/dL
same,HDL Min,HDL; [11],30.00 mg/dL
same,HDL Max,HDL; [12],72.00 mg/dL
same,HDL Mean (SD),HDL; [12],44.71 (13.00) mg/dL
same,HDL Median,HDL; [12],39.00 mg/dL
same,HDL Min,HDL; [12],32.00 mg/dL
same,HDL V2 to V6 % Change Max,HDL; [13],24.53%
same,HDL V2 to V6 % Change Mean (SD),HDL; [13],−3.43 (10.55) %
same,HDL V2 to V6 % Change Median,HDL; [13],−5.80%
same,HDL V2 to V6 % Change Min,HDL; [13],−22.7%
same,HDL V2 to V6 Change Max,HDL; [13],13.00 mg/dL
same,HDL V2 to V6 Change Mean (SD),HDL; [13],−1.72 (5.19) mg/dL
same,HDL V2 to V6 Change Median,HDL; [13],-3.00 mg/dL
same,HDL V2 to V6 Change Min,HDL; [13],-10.0 mg/dL
same,HDL V2 to V6 % Change Max,HDL; [14],24.53%
same,HDL V2 to V6 % Change Mean (SD),HDL; [14],−2.50 (11.26) %
same,HDL V2 to V6 % Change Median,HDL; [14],−4.04%
same,HDL V2 to V6 % Change Min,HDL; [14],−22.7%
same,HDL V2 to V6 Change Max,HDL; [14],13.00 mg/dL
same,HDL V2 to V6 Change Mean (SD),HDL; [14],−1.36 (5.64) mg/dL
same,HDL V2 to V6 Change Median,HDL; [14],-2.00 mg/dL
same,HDL V2 to V6 Change Min,HDL; [14],-10.0 mg/dL
